Reference: patent US8278032B2, “Transporter protein in mammal and utilization of the same” (priority 2005, dated 2012)
Like-named read-outs stand apart in the source and are kept apart here.

How the values were obtained:
mMATE1 = target: T1, mMATE1 (Mus musculus, UniProt Q8K0H1); assay: Inhibition of RI-labeled TEA uptake in HEK293 cells expressing mMATE1; type: cell-based; settings: for remaining activity at 1000 µM: compound 1 mM;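 as to all read-outs here: transfected HEK293 cells held 5 min at 37 °C before tracer addition, uptake read as radioactivity retained on a 0.45-µm membrane filter, mean ± SD of three to nine experiments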
T1 construct: expressed in transfected cells; host or cells: HEK293
T1 sequence (Q8K0H1 with tags, fused parts or gaps): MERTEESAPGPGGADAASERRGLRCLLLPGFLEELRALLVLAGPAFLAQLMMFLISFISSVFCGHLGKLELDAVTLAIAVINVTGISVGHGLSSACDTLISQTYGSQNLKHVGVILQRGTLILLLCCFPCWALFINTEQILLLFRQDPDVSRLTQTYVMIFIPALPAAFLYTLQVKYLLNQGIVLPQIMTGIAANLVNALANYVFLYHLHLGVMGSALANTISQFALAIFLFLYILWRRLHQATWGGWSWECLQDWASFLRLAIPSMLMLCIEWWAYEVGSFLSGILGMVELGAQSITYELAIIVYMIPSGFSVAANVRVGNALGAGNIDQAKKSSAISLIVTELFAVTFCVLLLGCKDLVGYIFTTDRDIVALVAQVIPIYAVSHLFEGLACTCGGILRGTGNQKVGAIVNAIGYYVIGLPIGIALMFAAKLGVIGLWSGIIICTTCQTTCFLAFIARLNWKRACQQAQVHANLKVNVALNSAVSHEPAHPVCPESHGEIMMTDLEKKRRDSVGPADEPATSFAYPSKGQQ

hMATE1 [1] = target: T2, hMATE1 (Homo sapiens, UniProt Q96FL8); assay: Inhibition of RI-labeled TEA uptake in HEK293 cells expressing hMATE1; settings: for Inhibition of TEA uptake activity (in words, summary of Table 1): MATE1 expressing HEK293 cells, 50 μM TEA, pH 8.0
T2 sequence (Q96FL8 1-570): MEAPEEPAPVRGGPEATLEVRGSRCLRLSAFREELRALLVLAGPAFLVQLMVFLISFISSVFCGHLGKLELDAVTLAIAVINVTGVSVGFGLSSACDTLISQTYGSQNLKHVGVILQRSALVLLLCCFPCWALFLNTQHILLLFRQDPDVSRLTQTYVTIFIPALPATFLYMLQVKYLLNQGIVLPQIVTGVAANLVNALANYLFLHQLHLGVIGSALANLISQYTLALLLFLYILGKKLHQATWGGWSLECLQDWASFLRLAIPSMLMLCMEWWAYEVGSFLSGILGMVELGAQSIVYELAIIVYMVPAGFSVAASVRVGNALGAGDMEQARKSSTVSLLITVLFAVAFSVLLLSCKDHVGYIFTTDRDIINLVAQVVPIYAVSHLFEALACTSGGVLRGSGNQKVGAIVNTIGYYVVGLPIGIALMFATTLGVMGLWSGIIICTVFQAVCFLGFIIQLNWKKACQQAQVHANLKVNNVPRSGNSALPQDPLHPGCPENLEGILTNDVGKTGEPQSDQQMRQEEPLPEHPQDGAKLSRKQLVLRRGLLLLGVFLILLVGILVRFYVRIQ

hMATE1 [2] = target: T2, hMATE1; settings: for Km: read-out: Km value of transport, substrate transport, cells expressing wild type MATE1 (TEA: FIG. 9(c)), MPP: MATE1, species not stated
hMATE1 [3] = target: T2, hMATE1; settings: radioactive nicotine 2 μM, FIG. 10
hMATE1 [4] = target: T2, hMATE1; settings: 1 mM 14C-TEA, pH of extracellular fluid varied, FIG. 12
[5] = compound 10 mM, 50 μM RI-labeled TEA, pH 8.0, HEK293 cells expressing mMATE1
[6] = compound 10 mM, 50 μM RI-labeled TEA, pH 8.0, HEK293 cells expressing hMATE1
[7] = compound 5 mM, 50 μM RI-labeled TEA, pH 8.0, HEK293 cells expressing mMATE1
[8] = compound 0.1 mM, 50 μM RI-labeled TEA, pH 8.0, HEK293 cells expressing hMATE1
[9] = compound 5 mM, 50 μM RI-labeled TEA, pH 8.0, HEK293 cells expressing hMATE1
[10] = HEK293, pH 8, read-out: TEA uptake activity percent taking the level with addition of no compound as 100% (% ± S.D.)
[11] = 50 μM RI-labeled TEA, pH 8.0, HEK293 cells expressing mMATE1, read-out: TEA uptake activity percent taking the level with addition of no compound as 100% (% ± S.D.)
[12] = compound 1 mM, 50 μM RI-labeled TEA, pH 8.0, HEK293 cells expressing hMATE1
[13] = compound 0.1 mM, 50 μM RI-labeled TEA, pH 8.0, HEK293 cells expressing mMATE1, read-out: TEA uptake activity percent taking the level with addition of no compound as 100% (% ± S.D.)
[14] = compound 0.01 mM, 50 μM RI-labeled TEA, pH 8.0, HEK293 cells expressing hMATE1

N=C(N)N [Guanidine]
remaining activity at 500 µM (mMATE1; compound 0.5 mM, 50 μM RI-labeled TEA, pH 8.0, HEK293 cells expressing mMATE1, read-out: TEA uptake activity percent taking the level with addition of no compound as 100% (% ± S.D.)): 96 ± 8.5% | TEA uptake activity percent taking the level with addition of no compound as 100% (% ± S.D.) (hMATE1 [1]; compound 0.5 mM, 50 μM RI-labeled TEA, pH 8.0, HEK293 cells expressing hMATE1): 93.4 ± 7.6%

CC(O)C(=O)O (centres unmarked) [Lactate]
TEA uptake activity percent taking the level with addition of no compound as 100% (% ± S.D.) (mMATE1; [5]): 93.9 ± 3.2% | TEA uptake activity percent taking the level with addition of no compound as 100% (% ± S.D.) (hMATE1 [1]; [6]): 103.8 ± 8.8%

C[n+]1ccc(-c2ccccc2)cc1 [MPP, 1-methyl-4-phenylpyridinium]
TEA uptake activity percent taking the level with addition of no compound as 100% (% ± S.D.) (mMATE1; compound 0.1 mM, 50 μM RI-labeled TEA, pH 8.0, HEK293 cells expressing mMATE1): 33.1 ± 9.5% | TEA uptake activity percent taking the level with addition of no compound as 100% (% ± S.D.) (mMATE1; [7]): 0.0 ± 2.1% | Vmax of transport (hMATE1 [2]; MPP as substrate, MATE1, species not stated): 170 pmol/min/mg protein | Km (hMATE1 [2]): 16 µM | Inhibition of TEA uptake activity (in words, summary of Table 1) (hMATE1 [1]): inhibited | TEA uptake activity percent taking the level with addition of no compound as 100% (% ± S.D.) (hMATE1 [1]; [8]): 67.4 ± 8.4% | TEA uptake activity percent taking the level with addition of no compound as 100% (% ± S.D.) (hMATE1 [1]; [9]): 0.0 ± 0.3%

COc1ccc2[nH]cc(CCNC(C)=O)c2c1 [Melatonin]
remaining activity at 100 µM (mMATE1; [10]): 51.4 ± 0.8% | Inhibition of TEA uptake activity (in words, summary of Table 1) (hMATE1 [1]): inhibited | TEA uptake activity percent taking the level with addition of no compound as 100% (% ± S.D.) (hMATE1 [1]; [8]): 85.0 ± 4.0%

CNC(=O)c1cccnc1 [NMN, N-methylnicotinamide]
remaining activity at 1000 µM (mMATE1; [11]): 115 ± 8.9% | TEA uptake activity percent taking the level with addition of no compound as 100% (% ± S.D.) (hMATE1 [1]; [12]): 93.5 ± 1.9%

CN1CCCC1c1cccnc1 (centres unmarked) [Nicotine]
remaining activity at 100 µM (mMATE1; [13]): 91.9 ± 3.1% | remaining activity at 5000 µM (mMATE1; compound 5 mM, 50 μM RI-labeled TEA, pH 8.0, HEK293 cells expressing mMATE1, read-out: TEA uptake activity percent taking the level with addition of no compound as 100% (% ± S.D.)): 36.7 ± 3.1% | Nicotine transport by MATE1 (in words) (hMATE1 [3]): functioning as a nicotine transporter | Inhibition of TEA uptake activity (in words, summary of Table 1) (hMATE1 [1]): mildly inhibited | TEA uptake activity percent taking the level with addition of no compound as 100% (% ± S.D.) (hMATE1 [1]; [8]): 63.7 ± 5.0% | TEA uptake activity percent taking the level with addition of no compound as 100% (% ± S.D.) (hMATE1 [1]; [9]): 5.8 ± 4.3%

Nc1ccc(C(=O)NCC(=O)O)cc1 [PAH]
TEA uptake activity percent taking the level with addition of no compound as 100% (% ± S.D.) (mMATE1; [7]): 94.7 ± 9.1% | TEA uptake activity percent taking the level with addition of no compound as 100% (% ± S.D.) (hMATE1 [1]; [9]): 110.3 ± 2.7%

CCCN(CCC)S(=O)(=O)c1ccc(C(=O)O)cc1 [Probenecid]
remaining activity at 1000 µM (mMATE1; [11]): 93.7 ± 11.9% | TEA uptake activity percent taking the level with addition of no compound as 100% (% ± S.D.) (hMATE1 [1]; [12]): 108.5 ± 7.9%

CCN(CC)CCNC(=O)c1ccc(N)cc1 [Procainamide]
remaining activity at 100 µM (mMATE1; [10]): 65.7 ± 8.2% | TEA uptake activity percent taking the level with addition of no compound as 100% (% ± S.D.) (hMATE1 [1]; [8]): 62.6 ± 0.8%

CC(=O)[C@H]1CC[C@H]2[C@@H]3CCC4=CC(=O)CC[C@]4(C)[C@H]3CC[C@]12C [Progesterone]
remaining activity at 100 µM (mMATE1; [13]): 9.3 ± 1.6% | Inhibition of TEA uptake activity (in words, summary of Table 1) (hMATE1 [1]): inhibited | TEA uptake activity percent taking the level with addition of no compound as 100% (% ± S.D.) (hMATE1 [1]; [8]): 31.7 ± 5.6%

O=c1c(O)c(-c2ccc(O)c(O)c2)oc2cc(O)cc(O)c12 [Quercetin]
remaining activity at 100 µM (mMATE1; [13]): 47.1 ± 0.1% | Inhibition of TEA uptake activity (in words, summary of Table 1) (hMATE1 [1]): inhibited | TEA uptake activity percent taking the level with addition of no compound as 100% (% ± S.D.) (hMATE1 [1]; [8]): 28.2 ± 3.1%

C=C[C@H]1C[N@@]2CC[C@H]1C[C@@H]2[C@@H](O)c1ccnc2ccc(OC)cc12 [Quinidine]
remaining activity at 10 µM (mMATE1; compound 0.01 mM, 50 μM RI-labeled TEA, pH 8.0, HEK293 cells expressing mMATE1, read-out: TEA uptake activity percent taking the level with addition of no compound as 100% (% ± S.D.)): 74.7 ± 9.8% | remaining activity at 50 µM (mMATE1; compound 0.05 mM, 50 μM RI-labeled TEA, pH 8.0, HEK293 cells expressing mMATE1, read-out: TEA uptake activity percent taking the level with addition of no compound as 100% (% ± S.D.)): 50.3 ± 5.4% | remaining activity at 100 µM (mMATE1; [13]): 26.6 ± 7.3% | Inhibition of TEA uptake activity (in words, summary of Table 1) (hMATE1 [1]): strongly inhibited | TEA uptake activity percent taking the level with addition of no compound as 100% (% ± S.D.) (hMATE1 [1]; [14]): 35.0 ± 2.1% | TEA uptake activity percent taking the level with addition of no compound as 100% (% ± S.D.) (hMATE1 [1]; compound 0.05 mM, 50 μM RI-labeled TEA, pH 8.0, HEK293 cells expressing hMATE1): 5.1 ± 8.9% | TEA uptake activity percent taking the level with addition of no compound as 100% (% ± S.D.) (hMATE1 [1]; [8]): 0.0 ± 4.2%

O=C(O)c1ccccc1O [Salicylate]
TEA uptake activity percent taking the level with addition of no compound as 100% (% ± S.D.) (mMATE1; [5]): 92.4 ± 4.3% | TEA uptake activity percent taking the level with addition of no compound as 100% (% ± S.D.) (hMATE1 [1]; pH 8): 97.8 ± 4.8%

O=C(O)CCC(=O)O [Succinate]
TEA uptake activity percent taking the level with addition of no compound as 100% (% ± S.D.) (mMATE1; [5]): 95.1 ± 6.3% | TEA uptake activity percent taking the level with addition of no compound as 100% (% ± S.D.) (hMATE1 [1]; [6]): 108.1 ± 4.2%

CC[N+](CC)(CC)CC [TEA, tetraethylammonium]
TEA uptake activity percent taking the level with addition of no compound as 100% (% ± S.D.) (mMATE1; [7]): 0.0 ± 7. % | Km (hMATE1 [2]): 220 µM | Uptake of TEA into liposome containing MATE polypeptide (in words) (hMATE1 [4]): pH-dependent uptake of TEA was observed | TEA uptake activity percent taking the level with addition of no compound as 100% (% ± S.D.) (hMATE1 [1]; pH 8): 0.7 ± 1.8%

C[C@]12CC[C@H]3[C@@H](CCC4=CC(=O)CC[C@@]43C)[C@@H]1CC[C@@H]2O [Testosterone]
remaining activity at 1 µM (mMATE1; [10]): 67 ± 8.7% | remaining activity at 10 µM (mMATE1; [10]): 44.7 ± 3% | remaining activity at 100 µM (mMATE1; [10]): 11.5 ± 1.1% | Inhibition of TEA uptake activity (in words, summary of Table 1) (hMATE1 [1]): inhibited | TEA uptake activity percent taking the level with addition of no compound as 100% (% ± S.D.) (hMATE1 [1]; compound 0.001 mM, 50 μM RI-labeled TEA, pH 8.0, HEK293 cells expressing hMATE1): 99.6 ± 4.3% | TEA uptake activity percent taking the level with addition of no compound as 100% (% ± S.D.) (hMATE1 [1]; [14]): 64.5 ± 14.7% | TEA uptake activity percent taking the level with addition of no compound as 100% (% ± S.D.) (hMATE1 [1]; [8]): 38.8 ± 3.2%

O=c1[nH]c(=O)c2[nH]c(=O)[nH]c2[nH]1 [Uric acid]
remaining activity at 1000 µM (mMATE1; [11]): 109 ± 6.4% | Inhibition of TEA uptake activity (in words, summary of Table 1) (hMATE1 [1]): not inhibited | TEA uptake activity percent taking the level with addition of no compound as 100% (% ± S.D.) (hMATE1 [1]; [12]): 107.8 ± 2.7%

Rhodamine 123 [Rhodamine123]
TEA uptake activity percent taking the level with addition of no compound as 100% (% ± S.D.) (mMATE1; compound 0.01 mM, 50 μM RI-labeled TEA, pH 8.0, HEK293 cells expressing mMATE1): 0.5 ± 6.2% | Inhibition of TEA uptake activity (in words, summary of Table 1) (hMATE1 [1]): inhibited | TEA uptake activity percent taking the level with addition of no compound as 100% (% ± S.D.) (hMATE1 [1]; [14]): 5.0 ± 6.4%
